One block for each molecule: values may come before it.
What was measured:
[1] = Cytotoxicity against human NCI60 cells after 48 hrs by SRB assay; format: functional; conditions: NCI60, 48 h
U-251 = test: Cytotoxicity against human U251 cells after 48 hrs by SRB assay; format: functional; conditions: U-251, 48 h
HMEC = test: Cytotoxicity against human HMEC after 72 hrs by WST1 assay; format: cell-based
HCT-116 = test: Cytotoxicity against human HCT116 cells after 48 hrs by SRB assay; format: functional; conditions: HCT-116, 48 h
MCF7 = test: Cytotoxicity against human MCF7 cells after 48 hrs by SRB assay; format: functional; conditions: MCF7, 48 h
Hs-578T = test: Cytotoxicity against human Hs578T cells after 48 hrs by SRB assay; format: functional
SW-620 = test: Cytotoxicity against human SW620 cells after 48 hrs by SRB assay; format: functional; conditions: SW-620, 48 h
DU-145 = test: Cytotoxicity against human DU145 cells after 48 hrs by SRB assay; format: functional; conditions: DU-145, 48 h
Malme-3M = test: Cytotoxicity against human MALME-3M cells after 48 hrs by SRB assay; format: functional
MDA-MB-231 = test: Cytotoxicity against human MDA-MB-231 cells after 48 hrs by SRB assay; format: functional; conditions: MDA-MB-231, 48 h
[2] = molecular target: T1, Proto-oncogene tyrosine-protein kinase Src (Homo sapiens, UniProt P12931); test: Inhibition of c-Src (unknown origin) by fluorescence assay
[3] = Therapeutic index, ratio of GI50 for human HMEC to GI50 for human SK-BR-3 cells; conditions: HMEC cells versus SK-BR-3 cells, read-out: RatioGI50
SK-BR-3 = test: Cytotoxicity against human SK-BR-3 cells after 72 hrs by WST1 assay; format: functional
Histone deacetylase 4 = Histone deacetylase 4 (Homo sapiens, UniProt P56524); test: Inhibition of HDAC4 (unknown origin) using Boc-Lys(trifluoroacetyl)-AMC as substrate by fluorescence assay
[4] = molecular target: Polyamine deacetylase HDAC10 (Homo sapiens, UniProt Q969S8); test: Inhibition of HDAC10 (unknown origin) using fluorogenic peptide from p53 residues (379 to 382) (RHKK(Ac)) as substrate by fluorescence assay
[5] = molecular target: Protein deacetylase HDAC6 (Homo sapiens, UniProt Q9UBN7); test: Inhibition of HDAC6 (unknown origin) using fluorogenic peptide from p53 residues (379 to 382) (RHKK(Ac)) as substrate by fluorescence assay
Histone deacetylase 1 [6] = molecular target: T2, Histone deacetylase 1 (Homo sapiens, UniProt Q13547); test: Inhibition of human recombinant HDAC1 using Ac-Leu-Gly-Lys(Ac)AMCA as substrate after 30 mins by fluorescence assay
Histone deacetylase 5 = Histone deacetylase 5 (Homo sapiens, UniProt Q9UQL6); test: Inhibition of HDAC5 (unknown origin) using Boc-Lys(trifluoroacetyl)-AMC as substrate by fluorescence assay
Histone deacetylase 1 [7] = molecular target: T2, Histone deacetylase 1; test: Inhibition of HDAC1 (unknown origin) using fluorogenic peptide from p53 residues (379 to 382) (RHKK(Ac)) as substrate by fluorescence assay
[8] = molecular target: Tyrosine-protein kinase HCK (Homo sapiens, UniProt P08631); test: Inhibition of HCK (unknown origin)
Histone deacetylase 9 = Histone deacetylase 9 (Homo sapiens, UniProt Q9UKV0); test: Inhibition of HDAC9 (unknown origin) using Boc-Lys(trifluoroacetyl)-AMC as substrate by fluorescence assay
Histone deacetylase 2 = Histone deacetylase 2 (Homo sapiens, UniProt Q92769)
Histone deacetylase 1 [9] = molecular target: T2, Histone deacetylase 1; test: Inhibition of HDAC1 (unknown origin) by Fluor de Lys based assay
KM12 = test: Cytotoxicity against human KM12 cells after 48 hrs by SRB assay; format: functional; conditions: KM12, 48 h
Histone deacetylase 11 = Histone deacetylase 11 (Homo sapiens, UniProt Q96DB2); test: Inhibition of HDAC11 (unknown origin) using fluorogenic peptide from p53 residues (379 to 382) (RHKK(Ac)) as substrate by fluorescence assay
Histone deacetylase 8 = Histone deacetylase 8 (Homo sapiens, UniProt Q9BY41); test: Inhibition of HDAC8 (unknown origin) using fluorogenic peptide from p53 residues (379 to 382) (RHK(Ac)K(Ac)) as substrate by fluorescence assay
[10] = molecular target: T1, Proto-oncogene tyrosine-protein kinase Src; test: Inhibition of c-Src (unknown origin) after 10 mins by fluorimetric assay
Histone deacetylase 3 = Histone deacetylase 3 (Homo sapiens, UniProt O15379); test: Inhibition of HDAC3 (unknown origin) using fluorogenic peptide from p53 residues (379 to 382) (RHKK(Ac)) as substrate by fluorescence assay
[11] = molecular target: Tyrosine-protein kinase ABL1 (Homo sapiens, UniProt P00519); test: Inhibition of c-Abl (unknown origin)

T1 sequence (P12931 2-536 limits assumed): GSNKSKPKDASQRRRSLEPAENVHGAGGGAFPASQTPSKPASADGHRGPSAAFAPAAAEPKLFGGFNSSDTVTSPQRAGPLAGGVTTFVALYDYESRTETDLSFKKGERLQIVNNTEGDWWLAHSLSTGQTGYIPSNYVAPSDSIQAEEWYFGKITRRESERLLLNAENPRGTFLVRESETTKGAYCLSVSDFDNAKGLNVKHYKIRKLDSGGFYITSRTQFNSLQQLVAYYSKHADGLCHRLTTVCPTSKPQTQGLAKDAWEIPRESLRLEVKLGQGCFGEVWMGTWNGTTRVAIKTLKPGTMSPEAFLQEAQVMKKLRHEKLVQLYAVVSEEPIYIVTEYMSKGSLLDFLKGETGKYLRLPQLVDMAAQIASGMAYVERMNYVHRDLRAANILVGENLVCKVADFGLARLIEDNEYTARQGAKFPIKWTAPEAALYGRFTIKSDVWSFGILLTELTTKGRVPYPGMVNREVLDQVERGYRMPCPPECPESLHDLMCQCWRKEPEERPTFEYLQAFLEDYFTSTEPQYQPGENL
T2 sequence (Q13547 whole entry): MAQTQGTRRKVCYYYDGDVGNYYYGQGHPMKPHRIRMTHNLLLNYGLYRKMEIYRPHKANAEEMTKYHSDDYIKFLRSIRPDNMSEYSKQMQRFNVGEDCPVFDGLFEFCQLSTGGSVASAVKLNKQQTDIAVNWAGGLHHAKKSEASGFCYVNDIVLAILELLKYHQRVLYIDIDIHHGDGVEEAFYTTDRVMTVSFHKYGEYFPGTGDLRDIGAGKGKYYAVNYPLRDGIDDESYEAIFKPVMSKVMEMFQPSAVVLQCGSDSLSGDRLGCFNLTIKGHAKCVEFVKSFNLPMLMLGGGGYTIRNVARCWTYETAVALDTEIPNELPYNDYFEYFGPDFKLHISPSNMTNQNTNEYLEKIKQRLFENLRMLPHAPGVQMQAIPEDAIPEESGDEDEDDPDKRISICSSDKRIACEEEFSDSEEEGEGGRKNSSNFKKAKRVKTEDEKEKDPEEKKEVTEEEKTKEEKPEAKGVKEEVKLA
Chain of Histone deacetylase 5 (Q9UQL6 whole entry, the tested form may be a part): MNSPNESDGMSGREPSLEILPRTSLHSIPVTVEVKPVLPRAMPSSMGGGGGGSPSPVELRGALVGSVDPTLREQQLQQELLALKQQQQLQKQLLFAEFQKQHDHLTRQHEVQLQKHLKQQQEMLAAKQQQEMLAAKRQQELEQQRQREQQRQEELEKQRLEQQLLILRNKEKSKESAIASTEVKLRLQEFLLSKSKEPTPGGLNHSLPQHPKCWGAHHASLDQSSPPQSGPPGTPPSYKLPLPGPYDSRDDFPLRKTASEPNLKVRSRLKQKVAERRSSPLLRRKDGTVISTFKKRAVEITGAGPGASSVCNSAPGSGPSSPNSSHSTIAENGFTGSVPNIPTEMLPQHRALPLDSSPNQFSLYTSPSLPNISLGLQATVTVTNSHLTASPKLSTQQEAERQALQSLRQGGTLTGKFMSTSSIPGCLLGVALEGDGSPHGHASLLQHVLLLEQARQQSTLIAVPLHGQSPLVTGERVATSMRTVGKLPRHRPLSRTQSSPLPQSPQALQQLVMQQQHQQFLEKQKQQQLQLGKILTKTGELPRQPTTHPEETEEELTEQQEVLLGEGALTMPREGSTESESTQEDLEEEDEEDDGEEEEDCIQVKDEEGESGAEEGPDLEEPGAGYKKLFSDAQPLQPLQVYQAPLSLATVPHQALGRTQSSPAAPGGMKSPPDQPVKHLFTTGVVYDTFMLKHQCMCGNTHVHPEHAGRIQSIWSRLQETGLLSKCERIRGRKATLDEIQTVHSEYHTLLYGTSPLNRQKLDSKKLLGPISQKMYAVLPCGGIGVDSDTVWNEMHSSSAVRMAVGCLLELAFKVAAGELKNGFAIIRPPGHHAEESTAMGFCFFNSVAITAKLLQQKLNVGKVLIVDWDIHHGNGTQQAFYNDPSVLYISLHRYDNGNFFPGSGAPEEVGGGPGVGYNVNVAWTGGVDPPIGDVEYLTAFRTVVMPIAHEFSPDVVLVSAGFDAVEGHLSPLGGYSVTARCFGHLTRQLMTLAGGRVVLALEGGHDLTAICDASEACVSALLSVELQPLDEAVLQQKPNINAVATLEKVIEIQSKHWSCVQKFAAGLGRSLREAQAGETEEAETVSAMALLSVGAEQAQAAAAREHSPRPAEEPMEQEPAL
Chain of Histone deacetylase 8 (Q9BY41 whole entry, the tested form may be a part): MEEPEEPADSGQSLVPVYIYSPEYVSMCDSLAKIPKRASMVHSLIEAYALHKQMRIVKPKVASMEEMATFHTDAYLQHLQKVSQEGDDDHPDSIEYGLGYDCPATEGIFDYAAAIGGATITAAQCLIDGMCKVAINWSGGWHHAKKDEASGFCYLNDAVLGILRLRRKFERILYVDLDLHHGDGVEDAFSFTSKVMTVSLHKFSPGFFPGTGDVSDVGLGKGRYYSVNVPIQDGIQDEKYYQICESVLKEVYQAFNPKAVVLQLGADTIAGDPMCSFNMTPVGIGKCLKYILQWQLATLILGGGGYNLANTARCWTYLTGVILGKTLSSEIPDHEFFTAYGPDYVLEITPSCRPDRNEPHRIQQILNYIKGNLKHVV
Chain of Histone deacetylase 3 (O15379 whole entry, the tested form may be a part): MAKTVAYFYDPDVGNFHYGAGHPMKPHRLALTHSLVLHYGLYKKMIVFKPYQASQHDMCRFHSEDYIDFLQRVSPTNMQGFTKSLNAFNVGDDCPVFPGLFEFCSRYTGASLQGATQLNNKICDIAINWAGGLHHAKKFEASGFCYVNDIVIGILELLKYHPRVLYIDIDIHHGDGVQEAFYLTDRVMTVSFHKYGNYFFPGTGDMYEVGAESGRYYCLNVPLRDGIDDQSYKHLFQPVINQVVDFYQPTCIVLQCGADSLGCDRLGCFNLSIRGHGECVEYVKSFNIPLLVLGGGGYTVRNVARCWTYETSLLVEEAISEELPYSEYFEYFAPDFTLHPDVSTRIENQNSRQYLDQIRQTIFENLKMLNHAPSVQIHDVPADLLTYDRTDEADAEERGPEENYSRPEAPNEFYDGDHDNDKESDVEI
Chain of Histone deacetylase 11 (Q96DB2 whole entry, the tested form may be a part): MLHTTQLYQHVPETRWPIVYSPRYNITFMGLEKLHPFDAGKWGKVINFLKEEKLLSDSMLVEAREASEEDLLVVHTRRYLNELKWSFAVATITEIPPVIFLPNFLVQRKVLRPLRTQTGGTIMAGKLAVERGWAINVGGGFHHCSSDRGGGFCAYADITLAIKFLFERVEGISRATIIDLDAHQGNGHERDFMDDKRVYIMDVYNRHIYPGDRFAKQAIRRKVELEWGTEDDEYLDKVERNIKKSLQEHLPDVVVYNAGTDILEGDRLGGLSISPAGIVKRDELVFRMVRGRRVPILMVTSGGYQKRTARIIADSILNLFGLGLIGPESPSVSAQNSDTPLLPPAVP
Chain of Protein deacetylase HDAC6 (Q9UBN7 whole entry, the tested form may be a part): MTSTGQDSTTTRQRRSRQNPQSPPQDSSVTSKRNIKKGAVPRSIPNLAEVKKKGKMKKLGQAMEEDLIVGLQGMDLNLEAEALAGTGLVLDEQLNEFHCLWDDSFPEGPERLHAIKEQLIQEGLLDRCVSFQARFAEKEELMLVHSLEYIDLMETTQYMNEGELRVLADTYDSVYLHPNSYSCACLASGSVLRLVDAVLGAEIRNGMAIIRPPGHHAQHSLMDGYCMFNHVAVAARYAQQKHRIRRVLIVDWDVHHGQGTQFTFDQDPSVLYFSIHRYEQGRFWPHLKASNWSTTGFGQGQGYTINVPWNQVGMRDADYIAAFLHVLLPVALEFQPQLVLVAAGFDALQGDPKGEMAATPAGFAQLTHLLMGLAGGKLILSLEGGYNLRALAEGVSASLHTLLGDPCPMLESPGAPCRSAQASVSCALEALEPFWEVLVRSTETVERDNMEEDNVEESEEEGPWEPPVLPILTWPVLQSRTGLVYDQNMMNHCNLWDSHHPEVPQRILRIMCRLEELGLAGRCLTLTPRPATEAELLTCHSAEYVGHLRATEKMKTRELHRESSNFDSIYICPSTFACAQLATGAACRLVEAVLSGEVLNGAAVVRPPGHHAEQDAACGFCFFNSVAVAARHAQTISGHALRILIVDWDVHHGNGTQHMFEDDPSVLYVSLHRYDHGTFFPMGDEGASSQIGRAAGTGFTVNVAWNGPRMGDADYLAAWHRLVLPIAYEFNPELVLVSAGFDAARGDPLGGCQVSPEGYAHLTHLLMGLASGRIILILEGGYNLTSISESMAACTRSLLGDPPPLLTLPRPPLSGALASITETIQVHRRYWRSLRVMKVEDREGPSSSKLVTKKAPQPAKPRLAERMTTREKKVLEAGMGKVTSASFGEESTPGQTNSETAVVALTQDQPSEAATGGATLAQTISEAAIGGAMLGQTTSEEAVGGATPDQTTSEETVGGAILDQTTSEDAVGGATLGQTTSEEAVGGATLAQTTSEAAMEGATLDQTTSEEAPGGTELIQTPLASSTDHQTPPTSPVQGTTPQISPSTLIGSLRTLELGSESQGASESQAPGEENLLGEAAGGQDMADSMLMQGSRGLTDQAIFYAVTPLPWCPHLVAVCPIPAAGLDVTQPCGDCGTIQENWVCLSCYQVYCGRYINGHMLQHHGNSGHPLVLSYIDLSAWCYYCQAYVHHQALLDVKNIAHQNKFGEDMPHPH
Chain of Tyrosine-protein kinase HCK (P08631 whole entry): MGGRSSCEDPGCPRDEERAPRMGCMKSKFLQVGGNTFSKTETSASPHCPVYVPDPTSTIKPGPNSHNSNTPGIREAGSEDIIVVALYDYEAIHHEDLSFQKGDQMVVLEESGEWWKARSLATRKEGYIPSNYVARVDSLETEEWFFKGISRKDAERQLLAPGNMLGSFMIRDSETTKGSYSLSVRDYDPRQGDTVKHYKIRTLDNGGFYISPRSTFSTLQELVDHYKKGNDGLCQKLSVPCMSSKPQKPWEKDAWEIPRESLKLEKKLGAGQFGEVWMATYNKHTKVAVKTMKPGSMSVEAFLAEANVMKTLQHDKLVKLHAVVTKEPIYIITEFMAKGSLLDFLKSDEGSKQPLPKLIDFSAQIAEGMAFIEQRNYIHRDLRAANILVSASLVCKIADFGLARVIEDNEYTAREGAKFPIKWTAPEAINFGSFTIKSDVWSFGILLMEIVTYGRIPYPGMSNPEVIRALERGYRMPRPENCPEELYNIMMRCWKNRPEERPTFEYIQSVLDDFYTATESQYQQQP

SMILES: Cc1nc(Nc2ncc(C(=O)Nc3c(C)cccc3Cl)s2)cc(N2CCN(CCO)CC2)n1 [DASATINIB]
GI50 [1]: 5700 nM
GI50 (U-251): 2810 nM
GI50 (HMEC): 1.8 µM
GI50 (HCT-116): 3700 nM
GI50 (MCF7): 8.32 µM
GI50 (Hs-578T): 30 nM
GI50 (SW-620): 8.43 µM
GI50 (DU-145): 160 nM
GI50 (Malme-3M): 6.61 µM
GI50 (MDA-MB-231): 20 nM

Ki [2]: 605 nM
SMILES: Nc1ncnc2c1c(-c1ccc(Cl)cc1)nn2-c1ccccc1

SMILES: Nc1ncnc2c1c(-c1ccc(Cl)cc1)nn2-c1cccc(-c2cnnn2Cc2cccc(-c3ccccc3)c2)c1
GI50 (HMEC): 4.3 µM
selectivity ratio [3]: 0.9
GI50 (SK-BR-3; Homo sapiens, SK-BR-3, 72 h): 4800 nM

IC50 (Histone deacetylase 4): 3.98 µM
IC50 [4]: 51 nM
IC50 [5]: 2.7 nM
Ki (Histone deacetylase 1 [6]): 0.26 nM
IC50 (Histone deacetylase 5): 3.89 µM
IC50 (Histone deacetylase 1 [7]): 86 nM
Ki [8]: 504 nM
IC50 (Histone deacetylase 9): 28 µM
IC50 (Histone deacetylase 2): 231 nM
Ki (Histone deacetylase 1 [9]): 0.26 nM
IC50 (Histone deacetylase 11): 224 nM
IC50 (Histone deacetylase 8): 2310 nM
Ki [2]: 138 nM
Ki [10]: 138 nM
IC50 (Histone deacetylase 3): 19 nM
Ki [11]: 2350 nM
SMILES: Nc1ncnc2c1c(-c1ccc(Cl)cc1)nn2-c1cccc(-c2cnnn2CCCCCC(=O)NO)c1
GI50 [1]: 260 nM
GI50 (U-251): 280 nM
GI50 (HMEC): 4.7 µM
GI50 (HCT-116): 220 nM
GI50 (MCF7): 0.35 µM
GI50 (Hs-578T): 170 nM
GI50 (KM12): 470 nM
GI50 (SW-620): 0.25 µM
GI50 (SK-BR-3; Homo sapiens, SK-BR-3, 72 h): 200 nM
GI50 (DU-145): 390 nM
GI50 (Malme-3M): 0.07 µM
GI50 (MDA-MB-231): 390 nM

Ki (Histone deacetylase 1 [6]): 35 nM
Ki [10]: 4300 nM
SMILES: Nc1ncnc2c1c(-c1ccc(Cl)cc1)nn2-c1cccc(-c2cnnn2Cc2ccc(/C=C/C(=O)NO)cc2)c1

Ki (Histone deacetylase 1 [9]): 45 nM
SMILES: O=C(CCCCCn1nncc1-c1ccccc1)NO

Ki (Histone deacetylase 1 [9]): 0.62 nM
Ki [2]: 371 nM
SMILES: Nc1ncnc2c1c(-c1ccc(Cl)cc1)nn2-c1cccc(-c2cn(CCCCCC(=O)NO)nn2)c1

Ki (Histone deacetylase 1 [6]): 9.8 nM
SMILES: Nc1ncnc2c1c(-c1ccc(Cl)cc1)nn2-c1cccc(-c2cnnn2CCCCCCCC(=O)NO)c1

Ki (Histone deacetylase 1 [6]): 0.82 nM
Ki [10]: 190 nM
SMILES: Nc1ncnc2c1c(-c1ccc(Cl)cc1)nn2-c1cccc(-c2cnnn2CCCCCCC(=O)NO)c1

Ki (Histone deacetylase 1 [6]): 23 nM
SMILES: Nc1ncnc2c1c(-c1ccc(Cl)cc1)nn2-c1cccc(-c2cnnn2Cc2cccc(/C=C/C(=O)NO)c2)c1

SMILES: O=C(CCCCCCC(=O)Nc1ccccc1)NO [VORINOSTAT]
GI50 (HMEC): 5.8 µM
GI50 (SK-BR-3): 1200 nM
